These results are taken from patent US20190351012A1, “TARGETING OF INTERFERON-STIMULATED GENE EXPRESSION TO TREAT INTERFERONOPATHIES” (New York University, priority 2018, published 2019).

The subject of assay [1] is BRD4 at ISG56, Mx1 and IRF9 TSS. The experiment in a line: ChIP-qPCR for BRD4 at ISG promoters in HeLa cells. Format: cell-based, human. The settings on record: 1 h IFN stimulation. How it is done:
FIG. 5. BRD4 is required for ISG transcription. (A) HeLa cells were either left untreated or treated with IFN-α for 1 h in presence or absence of JQ-1 or HMBA. Using primers spanning intron-exon junctions, nuclear pre-mRNA for ISG54 and γ-actin were quantified by real-time RT-PCR and normalized to GAPDH mRNA. (B) Control and BRD4 KD cells were either left untreated or treated with IFN-α. ISG56 and BRD4 mRNA were quantified using real-time RT-PCR and normalized to GAPDH mRNA abundance. (C) HEK293T cells were transfected with pcDNA3 (Ctl) or Brd4 expression constructs along with a luciferase reporter driven by the ISG54 promoter. 24 h after transfection, cells were either left untreated or treated with IFN-α in the absence or presence of TSA before being assayed for luciferase activity (left panel). […] Nuclear proteins were extracted as a soluble fraction and a chromatin bound fraction and analyzed by western blotting using anti-BRD4, H4-AcK5 and actin antibodies. […] (F) ChIP assays were performed with antibodies against BRD4 and recovered ISG56, Mx1 and IRF9 TSS spanning sequences were quantified by real-time PCR, normalized to input, and represented as fold enrichment over the untreated sample. […]
Chromatin immunoprecipitation was performed as follows. […] Immunoprecipitated DNA sequences were recovered by alcohol precipitation and quantified by real-time PCR compared with input genomic DNA. […]

The test system of the next assay is BRD4 recruitment sites. The assay can be described thus: Global ChIP-Seq for BRD4 recruitment. Format: cell-based, human. As to conditions: combined IFN and TSA treatment. The procedure: To directly assess the effect of IFN and HDAC inhibition on BRD4 recruitment, we assayed the presence of BRD4 at ISG promoters by ChIP. BRD4 was recruited to three typical ISG promoters after 1 h of IFN stimulation. Importantly, this recruitment was abrogated by TSA, and, by JQ-1 (FIG. 5F). We also performed global ChIP-Seq for BRD4 recruitment.
ChIP-Seq libraries were made using the KAPA Hyper Prep kit (Roche, KK8504) using 25 ng of DNA per sample, according to the manufacturer's protocol for end repair and A-tailing. For adapter ligation, 8-nt multiplexing IDT (Integrated DNA Technologies) adapters (5 μM) were used. […] Libraries were sequenced on an Illumina HiSeq 4000 instrument, using a single read 50 protocol; 8 samples were pooled in one lane of a high output single read flow cell. […]
ChIP-Seq data analysis was carried out using the HiC-Bench pipeline (Lazaris et al., 2017, BMC Genomics 18:22). GenomicTools (Tsirigos et al., 2012, Bioinformatics 28:282-283), SAMtools (Li et al., 2009, Bioinformatics 25:2078-2079), DeepTools (Ramirez et al., 2016, Nucleic Acids Res. 44:W160-165), BEDTools (Quinlan and Hall, 2010, Bioinformatics 26:841-842), BigBed Tools (Kent et al., 2010, Bioinformatics 26:2204-2207), Picard Tools (https://broadinstitute.github.io/picard/), and R (https://www.R-project.org/) were used to analyze the sequenced reads and to check the quality of alignment. […]

For `CC(/C=C/C(=O)NO)=C\[C@@H](C)C(=O)c1ccc(N(C)C)cc1` [TSA, Trichostatin A], the “IFN-induced BRD4 recruitment to ISG promoters” value in assay [1] is on record as “abrogated”. Moreover, in the assay on BRD4 recruitment sites, the “sites of IFN-dependent BRD4 recruitment (366 detected) abrogated” value is reported as “all by 4 of which were abrogated”.
